The numbers were not newly measured in patent US10369118B2, “Method of reducing scarring” (Cole Research & Design, Inc., priority 2013, dated 2019), which cites them from elsewhere.

Each structure is given as a SMILES string.

One data set deals with keratinocytes. The settings on record: appear to be cytotoxic.

For the compound `Oc1ccc(/C=C/c2cc(O)cc(O)c2)cc1` [resveratrol, trans-3,4′,5-trihydroxystilbene], the solubility in water entry is recorded as “very low solubility”. Also, the “concentrations cytotoxic to keratinocytes” value in the data set with keratinocytes is given as “above 100 micromoles/liter”.
